Results from patent US6914045B2, “Glycopeptide antibiotics” (Wyeth Holdings Corporation, priority 2001, dated 2005).
≈ marks a conversion by molar mass, not a printed value.

How the values were obtained:
Test in all cases: in vitro antibacterial evaluation, MIC by broth dilution
Assay type in all cases: cell-based
[1] = tested on: Escherichia coli
Summary of the method: (§1)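 MIC = lowest antibiotic concentration preventing visible growth; inoculum 5×10^5 CFU/mL; drug range 64-0.06 μg/mL; Muller-Hinton II […]; NCCLS M7-A2 guidance.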

[2] = tested on: Enterococcus sp.; details: broth dilution, 18 hours at 35° C.; for MIC Enterococcus faecalis (ATCC 29212): strain ATCC 29212; for MIC Enterococcus faecalis (GC 2242): strain GC 2242; for MIC Enterococcus faecium (GC 2243): strain GC 2243; for MIC Enterococcus faecalis (GC 2691): strain GC 2691; for MIC Enterococcus faecalis (GC 3059): strain GC 3059; for MIC Enterococcus faecalis (GC 4552): strain GC 4552; for MIC Enterococcus faecalis (GC 4553): strain GC 4553; for MIC Enterococcus faecalis (GC 4554): strain GC 4554; for MIC Enterococcus faecium (GC 4556): strain GC 4556; for MIC Enterococcus faecium (GC 4557): strain GC 4557; for MIC Enterococcus avium (GC 4558): strain GC 4558; for MIC Enterococcus faecalis (GC 6189): strain GC 6189
Summary of the method: as §1

[3] = tested on: Staphylococcus sp.; details: broth dilution, 18 hours at 35° C.; for MIC Staphylococcus aureus (GC 1131): strain GC 1131
Summary of the method: as §1

[4] = tested on: Streptococcus sp.; details: broth dilution, 18 hours at 35° C.; for MIC Streptococcus pneumoniae (ATCC 6301): strain ATCC 6301; for MIC Streptococcus pneumoniae (GC 1894): strain GC 1894; for MIC Streptococcus pyogenes (GC 4563): strain GC 4563; for MIC Streptococcus agalactiae (GC 4564): strain GC 4564; for MIC Streptococcus pneumoniae (GC 4565): strain GC 4565
Summary of the method: as §1

COc1cc(C2OCC3OC(OC4C(CO)OC(Oc5ccc(CC6NC(=O)C(C(C)c7ccccc7)NC(=O)CNC(=O)C(CO)NC(=O)C(C(O)C7CNC(=N)N7C7OC(CO)C(O)C(O)C7O)NC(=O)C(C(O)C7CNC(=N)N7)NC6=O)cc5)C(O)C4O)C(O)C(O)C3O2)cc([N+](=O)[O-])c1O (centres unmarked) [Example 169]
MIC Escherichia coli (ATCC 25922) ([1]; strain ATCC 25922, 18 hours at 35° C.): >64 µg/mL | MIC Escherichia coli (GC 4559) ([1]; strain GC 4559, 18 hours at 35° C.): >64 µg/mL | MIC Escherichia coli (GC 4560) ([1]; strain GC 4560, 18 hours at 35° C.): 8 µg/mL (≈ 5.43 µM) | MIC Enterococcus faecalis (ATCC 29212) ([2]; inoculum 5×10^5 CFU/mL): >64 µg/mL | MIC Enterococcus faecalis (GC 2242) ([2]; inoculum 5×10^5 CFU/mL): > 64 µg/mL | MIC Enterococcus faecium (GC 2243) ([2]; inoculum 5×10^5 CFU/mL): >64 µg/mL | MIC Enterococcus faecalis (GC 2691) ([2]; inoculum 5×10^5 CFU/mL): >64 µg/mL | MIC Enterococcus faecalis (GC 3059) ([2]; inoculum 5×10^5 CFU/mL): >64 µg/mL | MIC Enterococcus faecalis (GC 4552) ([2]; inoculum 5×10^5 CFU/mL): >64 µg/mL | MIC Enterococcus faecalis (GC 4553) ([2]; inoculum 5×10^5 CFU/mL): >64 µg/mL | MIC Enterococcus faecalis (GC 4554) ([2]; inoculum 5×10^5 CFU/mL): >64 µg/mL | MIC Enterococcus faecium (GC 4556) ([2]; inoculum 5×10^5 CFU/mL): >64 µg/mL | MIC Enterococcus faecium (GC 4557) ([2]; inoculum 5×10^5 CFU/mL): 32 µg/mL (≈ 21.7 µM) | MIC Enterococcus avium (GC 4558) ([2]; inoculum 5×10^5 CFU/mL): >64 µg/mL | MIC Enterococcus faecalis (GC 6189) ([2]; inoculum 5×10^5 CFU/mL): >64 µg/mL | MIC Enterococcus faecalis (ATCC 29212) [2]: >64 µg/mL | MIC Enterococcus faecalis (GC 2242) [2]: >64 µg/mL | MIC Enterococcus faecium (GC 2243) [2]: >64 µg/mL | MIC Enterococcus faecalis (GC 2691) [2]: >64 µg/mL | MIC Enterococcus faecalis (GC 3059) [2]: >64 µg/mL | MIC Enterococcus faecalis (GC 4552) [2]: >64 µg/mL | MIC Enterococcus faecalis (GC 4553) [2]: >64 µg/mL | MIC Enterococcus faecalis (GC 4554) [2]: >64 µg/mL | MIC Enterococcus faecium (GC 4556) [2]: >64 µg/mL | MIC Enterococcus faecium (GC 4557) [2]: 32 µg/mL (≈ 21.7 µM) | MIC Enterococcus avium (GC 4558) [2]: >64 µg/mL | MIC Enterococcus faecalis (GC 6189) [2]: >64 µg/mL | MIC Staphylococcus aureus (GC 1131) ([3]; inoculum 5×10^5 CFU/mL): 32 µg/mL (≈ 21.7 µM) | MIC Staphylococcus aureus (ATCC 29213) ([3]; strain ATCC 29213): 32 µg/mL (≈ 21.7 µM) | MIC Staphylococcus aureus (GC 1131) [3]: 32 µg/mL (≈ 21.7 µM) | MIC Staphylococcus aureus (GC 3051) ([3]; strain GC 3051): 32 µg/mL (≈ 21.7 µM) | MIC Staphylococcus aureus (GC 3053) ([3]; strain GC 3053): >64 µg/mL | MIC Staphylococcus aureus (GC 4541) ([3]; strain GC 4541): 32 µg/mL (≈ 21.7 µM) | MIC Staphylococcus aureus (GC 4542) ([3]; strain GC 4542): 32 µg/mL (≈ 21.7 µM) | MIC Staphylococcus aureus-SMITH (GC 4543) ([3]; strain GC 4543): 32 µg/mL (≈ 21.7 µM) | MIC Staphylococcus aureus (GC 4544) ([3]; strain GC 4544): 32 µg/mL (≈ 21.7 µM) | MIC Staphylococcus aureus (GC 4545) ([3]; strain GC 4545): 32 µg/mL (≈ 21.7 µM) | MIC Staphylococcus haemolyticus (GC 4546) ([3]; strain GC 4546): 32 µg/mL (≈ 21.7 µM) | MIC Coagulase Negative Staphylococcus (GC 4547) ([3]; strain GC 4547): 32 µg/mL (≈ 21.7 µM) | MIC Coagulase Negative Staphylococcus (GC 4548) ([3]; strain GC 4548): 32 µg/mL (≈ 21.7 µM) | MIC Coagulase Negative Staphylococcus (GC 4549) ([3]; strain GC 4549): 16 µg/mL (≈ 10.9 µM) | MIC Coagulase Negative Staphylococcus (GC 4551) ([3]; strain GC 4551): >64 µg/mL | MIC Coagulase Negative Staphylococcus (GC 6257) ([3]; strain GC 6257): 8 µg/mL (≈ 5.43 µM) | MIC Streptococcus pneumoniae (ATCC 6301) ([4]; inoculum 5×10^5 CFU/mL): 8 µg/mL (≈ 5.43 µM) | MIC Streptococcus pneumoniae (GC 1894) ([4]; inoculum 5×10^5 CFU/mL): 8 µg/mL (≈ 5.43 µM) | MIC Streptococcus pyogenes (GC 4563) ([4]; inoculum 5×10^5 CFU/mL): 16 µg/mL (≈ 10.9 µM) | MIC Streptococcus agalactiae (GC 4564) ([4]; inoculum 5×10^5 CFU/mL): 32 µg/mL (≈ 21.7 µM) | MIC Streptococcus pneumoniae (GC 4565) ([4]; inoculum 5×10^5 CFU/mL): 8 µg/mL (≈ 5.43 µM) | MIC Streptococcus pneumoniae (ATCC 6301) [4]: 8 µg/mL (≈ 5.43 µM) | MIC Streptococcus pneumoniae (GC 1894) [4]: 8 µg/mL (≈ 5.43 µM) | MIC Streptococcus pyogenes (GC 4563) [4]: 16 µg/mL (≈ 10.9 µM) | MIC Streptococcus agalactiae (GC 4564) [4]: 32 µg/mL (≈ 21.7 µM) | MIC Streptococcus pneumoniae (GC 4565) [4]: 8 µg/mL (≈ 5.43 µM)
